Experimental data reported in patent US10221202B2, “Annelated phenoxyacetamides” (Boehringer Ingelheim International GmbH, priority 2015, dated 2019).

Legend:
[1] = Permeability in CALU-3 cells; format: in vitro ADME; conditions: human, CALU-3 monolayers, pH 7.4, 37° C., 10 μM compound; for Papp A→B at 90 min, 10 μM: apical-to-basal; for Papp B→A at 90 min, 10 μM: basal-to-apical
Protocol: Permeability measurements across polarized, confluent CALU-3 cell monolayers grown on permeable filter supports are used to provide information on the potential of a compound to pass the lung epithelium. Apparent permeability coefficients (Papp) of the compounds across the CALU-3 cell monolayers are measured (pH 7.4, 37° C.) in apical-to-basal (AB) and basal-to-apical (BA) transport direction. […] CALU-3 cells (1-2×10^5 cells/1 cm^2 area) are seeded on filter inserts (Costar transwell polycarbonate filters, 0.4 μm pore size) and cultured (for 10-12 days DMEM) until tight monolayers are formed. Compounds of interest are dissolved in appropriate solvent (DMSO, 10 mM stock solution). Stock solutions are diluted with HTP-4 buffer (128.13 mM NaCl, 5.36 mM KCl, 1 mM MgSO4, 1.8 mM CaCl2, 4.17 mM NaHCO3, 1.19 mM Na2HPO4×7H2O, 0.41 mM NaH2PO4×H2O, 15 mM HEPES, 20 mM glucose, 0.25% BSA, pH 7.4) to prepare the transport solutions (10 μM compound, final DMSO<=0.5%). The transport solution (TL) is applied to the apical or basolateral donor side for measuring A-B or B-A permeability (3 filter replicates), respectively. The receiver side contains the same buffer as the donor side. After 30 min of accommodation, samples are collected at the start t0=0 min and at the end of the experiment tn=90 min from the donor and at 0, 30, 60, and 90 min also from the receiver chamber. Volume removed is replenished by HTP-4 buffer. The compound concentration in the samples is measured by HPLC-MS/MS or scintillation counting. The permeability coefficient (Papp) and efflux ratio are calculated according to: Papp [cm/s]=(concentration receiver [nM]*volume receiver [mL]/time interval [sec])*(1/filter area)*(1/donor concentration [nM]).

[2] = biological target: T1, ENaC (Epithelial Sodium Channel) (Mus musculus, UniProt Q61180+Q9WU38+Q9WU39); assay: Ussing Chamber assay (short circuit current, amiloride sensitive I_SC); format: cell-based; conditions: Mouse kidney M-1 cells, apical application, 37° C.
T1 construct: Mouse kidney M-1 cells were cultivated in DMEM; endogenous in cells; host or cells: mouse kidney M-1 cells (cortical collecting duct line), no transfection mentioned
T1 sequence (Q61180 1-699): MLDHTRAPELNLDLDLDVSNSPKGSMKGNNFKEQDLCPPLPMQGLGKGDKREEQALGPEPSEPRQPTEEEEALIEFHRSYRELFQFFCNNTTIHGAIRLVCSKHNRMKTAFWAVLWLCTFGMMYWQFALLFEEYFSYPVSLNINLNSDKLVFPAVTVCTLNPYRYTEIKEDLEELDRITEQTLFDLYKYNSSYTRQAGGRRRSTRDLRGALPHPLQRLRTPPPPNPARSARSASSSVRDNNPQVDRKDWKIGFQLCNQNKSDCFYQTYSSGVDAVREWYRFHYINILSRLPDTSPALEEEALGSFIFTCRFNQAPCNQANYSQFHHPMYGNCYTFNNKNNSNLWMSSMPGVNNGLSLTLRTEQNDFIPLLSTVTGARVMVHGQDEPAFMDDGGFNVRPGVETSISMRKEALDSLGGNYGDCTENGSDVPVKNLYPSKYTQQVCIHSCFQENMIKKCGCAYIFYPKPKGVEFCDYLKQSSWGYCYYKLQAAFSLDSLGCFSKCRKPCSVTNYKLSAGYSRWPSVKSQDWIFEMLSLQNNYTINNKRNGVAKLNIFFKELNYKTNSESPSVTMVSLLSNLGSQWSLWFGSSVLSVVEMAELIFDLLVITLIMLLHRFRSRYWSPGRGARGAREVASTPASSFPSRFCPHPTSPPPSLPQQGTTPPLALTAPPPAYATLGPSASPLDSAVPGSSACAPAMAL
T1 sequence (Q9WU38 1-638): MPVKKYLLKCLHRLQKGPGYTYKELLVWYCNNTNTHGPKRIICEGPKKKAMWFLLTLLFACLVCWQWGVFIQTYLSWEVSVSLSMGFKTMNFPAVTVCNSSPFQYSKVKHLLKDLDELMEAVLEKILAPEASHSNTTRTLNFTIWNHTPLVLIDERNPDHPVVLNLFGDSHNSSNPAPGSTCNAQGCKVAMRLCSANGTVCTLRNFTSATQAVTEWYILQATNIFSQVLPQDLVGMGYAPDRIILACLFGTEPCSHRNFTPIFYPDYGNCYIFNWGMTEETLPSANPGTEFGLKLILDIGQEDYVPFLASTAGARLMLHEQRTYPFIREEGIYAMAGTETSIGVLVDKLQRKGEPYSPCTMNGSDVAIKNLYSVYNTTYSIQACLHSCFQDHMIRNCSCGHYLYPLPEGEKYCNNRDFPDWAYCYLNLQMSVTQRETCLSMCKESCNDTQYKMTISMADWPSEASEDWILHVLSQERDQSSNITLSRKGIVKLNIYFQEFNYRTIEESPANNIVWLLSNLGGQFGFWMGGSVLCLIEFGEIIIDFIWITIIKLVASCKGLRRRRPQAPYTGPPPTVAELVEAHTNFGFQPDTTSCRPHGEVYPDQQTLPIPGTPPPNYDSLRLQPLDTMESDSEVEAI
T1 sequence (Q9WU39 1-655): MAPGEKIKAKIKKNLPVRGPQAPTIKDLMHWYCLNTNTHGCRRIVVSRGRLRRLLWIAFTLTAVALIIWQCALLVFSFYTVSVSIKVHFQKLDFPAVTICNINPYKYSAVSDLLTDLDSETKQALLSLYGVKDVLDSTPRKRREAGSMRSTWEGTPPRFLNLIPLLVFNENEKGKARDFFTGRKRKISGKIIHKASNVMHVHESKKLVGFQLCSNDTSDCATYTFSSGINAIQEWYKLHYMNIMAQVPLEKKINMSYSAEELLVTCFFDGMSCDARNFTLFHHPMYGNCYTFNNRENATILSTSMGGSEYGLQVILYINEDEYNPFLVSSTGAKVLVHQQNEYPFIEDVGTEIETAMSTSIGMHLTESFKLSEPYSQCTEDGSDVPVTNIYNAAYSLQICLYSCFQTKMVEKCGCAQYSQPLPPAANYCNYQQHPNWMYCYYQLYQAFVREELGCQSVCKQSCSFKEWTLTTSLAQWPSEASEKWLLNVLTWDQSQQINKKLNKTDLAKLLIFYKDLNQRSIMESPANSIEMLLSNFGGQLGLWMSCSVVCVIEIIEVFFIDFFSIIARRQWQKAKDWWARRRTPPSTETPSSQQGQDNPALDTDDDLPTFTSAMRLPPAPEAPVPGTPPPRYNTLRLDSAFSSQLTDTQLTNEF
Protocol: The IC50 values of the example compounds given above were determined in the Ussing Chamber assay. Ussing Chamber: Mouse kidney M-1 cells were cultivated in DMEM containing 5% FCS and 5 μM dexamethasone for 10 to 12 days on polyester transwell filters. Filters were inserted into a teflon-coated well-plate which fit into the ussing chamber system. Prior to measurement the medium of M-1 cells was replaced with Caco-2 transport buffer (Invitrogen, Germany). During measurements, the Ussing chamber temperature was kept at 37° C. Short circuit currents (I_sc) were measured in the voltage-clamp mode with the software package Lab View for data acquisition and analysis. The transepithelial electrical resistance (TEER) was determined by the application of voltage steps of ±5 mV every 5 sec. Compounds were administered at a final concentration of 3 μM or at increasing concentrations (1-3-10 μM) to the apical solution. At the end of each experiment the amiloride sensitive I_SC was measured by adding 3 μM amiloride to the apical compartment. Results are expressed as inhibition in percent of the amiloride effect or as IC50.

Row | Structure (SMILES) | Papp A→B at 90 min, 10 μM [1] [×10⁻⁶ cm/s] | Papp B→A at 90 min, 10 μM [1] [×10⁻⁶ cm/s] | IC50 [2] [nM]
1 | CC[n+]1c(CNC(=O)c2nc(Cl)cnc2N)n(C[C@@H]2CCCO2)c2cc(OCC(=O)N3CC[S+]([O-])CC3)ccc21.O=C([O-])C(F)(F)F [Example 1.01] | 0.8 | 0.3 | 10
2 | CCn1c(CNC(=O)c2nc(Cl)cnc2N)[n+](CC)c2ccc(OCC(=O)NCCOCP(C)(C)=O)cc21.O=C([O-])C(F)(F)F [Example 2.04] | < 0.7 | 0.4 | 3
3 | CCn1c(CNC(=O)c2nc(Cl)cnc2N)[n+](CC)c2ccc(OCC(=O)NCCNC)cc21 [Example 2.02] |  |  | 2
4 | CCn1c(CNC(=O)c2nc(Cl)cnc2N)[n+](CC)c2ccc(OCC(=O)NCCCN)cc21.O=C(O)C(F)(F)F.O=C([O-])C(F)(F)F [Example 2.01] | 0.2 | 0.5 | 
5 | CCn1c(CNC(=O)c2nc(Cl)cnc2N)[n+](CC)c2ccc(OCC(=O)N(Cc3nc(C)ccc3O)C[C@H](C)O)cc21.O=C([O-])C(F)(F)F [Example 2.05] | 0.4 | 0.1 | 3
6 | CCn1c(CNC(=O)c2nc(Cl)cnc2N)[n+](CC)c2ccc(OCC(=O)NCCN(C)C)cc21.O=C[O-] [Example 2.06] | < 1 | 0.2 | 1
7 | CC[n+]1c(CNC(=O)c2nc(Cl)cnc2N)n(CCO)c2cc(OCC(=O)NCc3ccc(P(C)(C)=O)cc3)ccc21.O=C([O-])C(F)(F)F [Example 1.02] | 0.6 | 0.3 | 10
8 | CCn1c(CNC(=O)c2nc(Cl)cnc2N)[n+](CC2CCOCC2)c2ccc(OCC(=O)N(Cc3nc(C)ccc3[O-])C[C@H](C)O)cc21.O=C(O)C(F)(F)F.O=C(O)C(F)(F)F [Example 1.03] | 0.4 | 0.1 | 8
9 | CCn1c(CNC(=O)c2nc(Cl)cnc2N)[n+](CC)c2ccc(OCC(=O)N3CCC(N)CC3)cc21 [Example 2.03] |  |  | 1
